{"source": "patent US20020132236A1", "about": "“Specific inhibitors of ribosome recycling factors (RRF)” (priority 2000, published 2002)", "key": {"Swiss Webster male mice": {"system": "Swiss Webster male mice", "test": "Toxicity studies in mice", "format": "in vivo", "settings": "iv, ip", "procedure": "Swiss Webster male mice weighing 20-25 grams receive intraperitoneal or intravenous injections of tetra guanylic acid, dissolved in 0.9% sodium chloride, see Table 1 for dosages.\nFor sd-G4 to be active as a specific inhibitor of RRF sd-G4 must be non-toxic in living organisms. Dosages (20-125 mg/kg) of sd-G4 and its related tetra nucleotides are administered to mice intraperitonially, as well as intraveniously, and neither acute nor chronic toxicity is noted, i.e., no grossly observable changes in growth activity, locomotor activity, food intake, or water intake during an observation period of 25 days. Moreover, no pathological signs are noted at autopsy (Table 1). […] Thus, sd-G4 is best choice for a lead compound in the computer based rational design of the anti RRF agents."}, "RRF [1]": {"biological_target": "T1, RRF (Escherichia coli, UniProt P0A805)", "T1 sequence (P0A805 whole entry)": "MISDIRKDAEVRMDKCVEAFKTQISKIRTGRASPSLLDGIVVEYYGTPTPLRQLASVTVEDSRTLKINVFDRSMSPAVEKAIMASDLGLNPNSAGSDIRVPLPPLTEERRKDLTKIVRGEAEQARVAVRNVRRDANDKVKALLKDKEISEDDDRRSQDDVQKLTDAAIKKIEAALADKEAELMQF", "test": "RRF reaction: conversion of polysomes to monosomes (sucrose gradient)", "format": "biochemical, E. coli", "settings": "for Inhibition of the RRF reaction (conversion of polysomes to monosome): dose response, expressed as percent inhibition", "procedure": "The reaction mixture (275 μl) contained 72 ng/ml RRF, 0.4 μg/ml EF-G, 363 nM GTP, 10 mM Tris-Cl, pH 7.4, 8.2 mM MgSO4, […] NH4Cl, 0.3 mM DTT, […] puromycin, 1 A260 polysome of E. coli, and an increasing concentration of sd-G4, as indicated in FIG. 1. The reaction mixture is incubated for 15 min at 30° C., loaded onto a sucrose gradient (15% to 30% in buffer J (Hirashima, A., Kaji, A., Biochemistry 11: 461-471, 1972) and centrifuged at 40,000 rpm for 75 min at 4° C. The ISCO density gradient analyzer monitored sedimentation profiles of the polyribosome. The value is expressed as a percent inhibition calculated from the area of 70S and polysome on those profiles."}, "[2]": {"system": "MS2 RNA dependent protein synthesis", "test": "MS2 RNA dependent protein synthesis in S30 extract", "format": "biochemical, E. coli", "settings": "7 μM, 8 minute point", "procedure": "The reaction mixture (30 μl) contains 12 μl S30 (Kaji, 1968), Premixture (Promega), 2.4 μg MS2 phage RNA (Boehringer Mannheim), 0.1 mM amino acids mixture minus methionine (Promega), 10.1 pmole ^35S-methionine (NEN, 0.6 Ci/μmole), 0.6 A ^260U S30 extract (Promega), and 1, 4, 7, or 10 μM sd-G4 (FIG. 3). The reaction mixture is incubated at 37° C. At various times after the onset of the reaction, hot TCA (trichloroacetic acid) insoluble counts are measured."}, "E. coli RRF": {"biological_target": "E. coli RRF (Escherichia coli, UniProt P0A805)", "sequence (P0A805 whole entry)": "as above", "test": "Gel retardation assay with E. coli RRF and 32P-end-labeled sd-G4", "format": "binding", "settings": "about 2.4 μM, competed by non-labeled sd-G4, BSA negative control", "procedure": "The reaction mixture for the binding of ^32P-end-labeled sd-G4 to RRF (10 μl) contains 8 mM Tris-Cl(pH 7.6), 9.7 mM MgSO4, 81 mM NH4Cl, 1.3 mM DTT, and approximately 2.4 μM of ^32P-end-labeled sd-G4. E. coli RRF, EF-G, polysome, BSA are added as indicated in FIG. 9 and competitor non-labeled sd-G4 is added at ½, 1, 2, and 4 times the concentration of the labeled sd-G4 (FIG. 9). The mixture is incubated at 30° C. for 15 min. 5% Glycerol and one-tenth volume of 25% Ficoll containing xylane cyanol and bromphenol blue is added, and the entire reaction mixture is subjected to 4% polyacrylamide gel (29:1, acrylamide/bisacrylamide) electrophoresis at 10 V/cm with constant recirculation of TBE buffer (89 mM Tris-borate, 2.5 mM EDTA, pH 8.3). The gel is dried onto Whatman 3MM paper and subject to autoradiography."}, "RRF [3]": {"biological_target": "T1, RRF", "test": "RRF reaction: conversion of polysomes to monosomes (sucrose gradient)", "format": "biochemical, E. coli", "settings": "1× RRF (72 ng/ml) vs 2× RRF (144 ng/ml)"}, "[4]": {"system": "translation of polyuridylic acid (Poly U) into polyphenylalanine", "test": "Translation of polyuridylic acid (Poly U) into polyphenylalanine in S30 extract", "format": "biochemical, E. coli", "settings": "as high as 10 μM", "procedure": "The reaction mixture (30 μl) contains 12 μl S30, Premixture (Promega), 20 μM ^14C-phenylalanine (Amersham, 450 Ci/mole), 10 mM Mg acetate (MgAc), 0.08 μg/ml polyU (Sigma), 1 A260 unit of E. coli S30 extract (Promega), and 1, 4, 7, or 10 μM sd-G4 (FIG. 4). The reaction mixture is incubated at 37° C. At various periods after the onset of the reaction, hot TCA (trichloroacetic acid) insoluble counts are measured."}, "RRF [5]": {"biological_target": "T1, RRF", "test": "Release of ribosome-bound deacylated tRNA by RRF", "format": "biochemical", "settings": "7 μM, various amounts of E. coli polysome", "procedure": "The reaction mixture (550 μl) for the RRF reaction contains 0.2 nmole RRF where indicated, 0.2 nmole EF-G, 0.37 μM GTP, 275 μM puromycin, 10 μM sd-G4 where indicated, and various amounts of E. coli polysome (see FIG. 8). The mixture is incubated for 15 min. at 30° C. The released tRNA is separated from the complex with pre-washed Microcon 100 (Millipore, 330× g, 40 min). The filter is washed once by centrifugation with 550 μl of a buffer (10 mM Tris-Cl, pH 7.6, 8.2 mM MgSO4, 80 mM NH4Cl, 0.14 mM DTT) and combined with the filtrate. Separated tRNA solution is concentrated with Microcon 30 (Millipore, 14,000× g, 15 min. twice) to a total volume of 14 μl. The concentrated tRNA is charged with 0.15 μCi of ^14C-amino acids mixture (Amersham, 52 mCi/mg) in 30 μl of the reaction mixture (50 mM Tris-Cl, pH 7.8,10 mM MgAc, 6 mM β-mercaptoethanol, 3 mM ATP, 5 mM phosphoenolpyruvate, 138 μg pyruvate kinase, 33.3 μg aminoacyl tRNA synthetases). Cold (4° C.) TCA (trichloro acetic acid) insoluble radioactivity is measured to estimate the amount of tRNA released. In this experiment, the amount of tRNA released is measured by its capacity to accept an amino acid."}}, "note": "Entries after “also recorded” stand apart in the source; their conditions may differ."}
{"substance": "5′ phosphorylated sd-G4 [p sd-G4]", "values": [{"measurement": "Visual effect", "setting": "Swiss Webster male mice; 20 mg-125 mg/kg", "value": "none"}]}
{"substance": "Tetraadenylic acid", "values": [{"measurement": "Inhibition of the RRF reaction (conversion of polysomes to monosome)", "setting": "RRF [1]", "value": "ineffective"}]}
{"substance": "deoxyguarylic acid [d-G4, reference compound]", "values": [{"measurement": "Visual effect", "setting": "Swiss Webster male mice; 125 mg/kg", "value": "none"}]}
{"substance": "phosphorothioate tetradeoxyguanylic acid [sd-G4]", "values": [{"measurement": "Inhibition of protein synthesis (MS2 phage RNA translation)", "setting": "[2]", "value": 50, "unit": "%"}, {"measurement": "Binding to RRF (retarded electrophoretic movement)", "setting": "E. coli RRF", "value": "binds"}, {"measurement": "Concentration that significantly inhibited the RRF reaction", "setting": "RRF [1]; 72 ng/ml RRF, 15 min at 30° C.", "value": 5, "unit": "µM"}, {"measurement": "Inhibition of the RRF reaction (conversion of polysomes to monosome)", "setting": "RRF [1]", "value": "inhibits the RRF reaction in a dose-dependent manner; also recorded: has inhibitory activity; also recorded: effective"}, {"measurement": "Effect of excess RRF on inhibition of the RRF reaction", "setting": "RRF [3]", "value": "reduced by addition of more RRF"}, {"measurement": "Polyphenylalanine formation (incorporation of labeled phenylalanine)", "setting": "[4]", "value": "does not inhibit"}, {"measurement": "Release of ribosome-bound deacylated tRNA by RRF", "setting": "RRF [5]", "value": "does not inhibit release of tRNA"}, {"measurement": "Visual effect", "setting": "Swiss Webster male mice; 20 mg-125 mg/kg", "value": "none"}]}
{"substance": "phospo diester tetraguanylic acid [pd-G4]", "values": [{"measurement": "Inhibition of the RRF reaction (conversion of polysomes to monosome)", "setting": "RRF [1]", "value": "not effective in inhibiting RRF"}, {"measurement": "Inhibition of the RRF reaction (conversion of polysomes to monosome)", "setting": "RRF [1]; listed as phosphodiester oligoG", "value": "retains the ability to inhibit RRF to some extent"}]}
{"substance": "riboinosinic tetraphosphate [(RIP)4, reference compound]", "values": [{"measurement": "Visual effect", "setting": "Swiss Webster male mice; 125 mg/kg", "value": "none"}]}
{"substance": "tetracytidylic acid", "values": [{"measurement": "Inhibition of the RRF reaction (conversion of polysomes to monosome)", "setting": "RRF [1]", "value": "ineffective"}]}
{"substance": "tetrathymidylic acid", "values": [{"measurement": "Inhibition of the RRF reaction (conversion of polysomes to monosome)", "setting": "RRF [1]", "value": "ineffective"}]}
